Assay results taken from patent US20250236600A1, “SUBSTITUTED VINYL PIPERAZINE-PIPERIDINE UREA DERIVATIVES AS ANTICANCER AGENTS” (UNIVERSITA' DEGLI STUDI DI PAVIA, priority 2021, published 2025).
Entries after “also recorded” stand apart in the source; their conditions may differ.

How the values were obtained:
[1] = tested on: U87-MG cells; assay: Sulforhodamine B (SRB) cell viability assay, U87-MG; type: cell-based; conditions: Homo sapiens, U-87 MG, 24 hours
From the text: (§1) Sulforhodamine B (SRB) assay was used to evaluate RPMI 8226 cell viability in vitro. It is a widely used method to evaluate cell viability and cytotoxicity. This method relies on the property of SRB, which binds stoichiometrically to proteins under mild acidic conditions. Thus, the amount of bound dye can be used as measure of cell proliferation.
(§2) Human RPMI 8226 and U87-MG cells were growth in culture medium (DMEM low glucose for U87-MG and RPMI 1640 for RPMI 8226), supplemented with 10% fetal bovine serum, 1% L-glutamine, 1% penicillin and streptomycin. Cells were maintained in a humidified incubator at 37° C. and 5% CO2. For SRB assay, 1×10^4/well cells were seeded in a 96-well plate and were treated with increasing concentrations of the compounds (1-20 μM). After 24 hours, cells were fixed with 10% trichloroacetic acid and were stained with SRB solution. Excess of dye was removed by washing with 1% acetic acid. The protein-bound dye was then dissolved in 10 mM Tris base solution and absorbance was measured at 510 nm using a microplate reader.
(§3) Statistical analysis of the data obtained was performed using the one-way analysis of variance (ANOVA) and the Dunnet's post-hoc test. Values of p<0.01 (**) were considered statistically significant.
(§4) The results, expressed as the mean±standard deviation, represents the percentage of viable cells compared to untreated control (arbitrarily set to 100%).
(§5) FIG. 7 represents the results obtained in U87-MG cells after treatment with compound 26 (A), 27 (B), 28 (C) 29 (D) and 30 (E). FIG. 8 represents the results obtained for RPMI 8226 cells after treatment with compound 26 (A), 27 (B), 28 (C) 29 (D) and 30 (E). Cells were treated for 24 hours with increasing concentrations of compounds (1, 5, 10 and 20 μM).

[2] = tested on: RPMI 8226 cells; assay: Sulforhodamine B (SRB) cell viability assay, RPMI 8226; type: cell-based, Human; conditions: RPMI 8226, SRB assay, 24 hours; for IC20 / IC50: Homo sapiens
From the text: as §1, §2, §3, §4, §5

[3] = tested on: U87-MG cells; assay: Scratch wound healing cell migration assay; type: cell-based, Human; conditions: 1-10 μM, 24 hours, FIG. 9
Procedure: FIG. 9 represent cell migration assays on U87-MG cells.
The scratch wound healing assay evaluates the ability of cells to close a manually created gap on the cell monolayer in vitro. This assay is indicative of cell motility and the ability of cells to propagate locally.
Cells were seeded in 6-well plates and were incubated until reaching confluence. At this point, using a plastic tip, a scratch was manually created on the surface of the cell monolayer. Culture medium was then replaced with fresh medium with or without treatments. Cells were treated with increasing concentrations of the compounds (1-10 μM). Micrographs were taken immediately after the scratch (t0) and 24 hours later (t24). The area of the scratch was measured using ImageJ software and cell migration area was calculated by subtracting the t24 area from the t0 area.
as §3
The results, expressed as the mean±standard deviation, represents the percentage of the cell migration area compared to untreated control (arbitrarily set to 100%).

[4] = tested on: U87-MG cells; assay: Boyden chamber cell invasion, U87-MG; type: cell-based, Human; conditions: treated at IC20 of SRB assay, 16 hours, FIG. 10A
Procedure: (§6) Cell invasion is evaluated by Boyden Chamber. In Boyden chamber, cells attracted by a chemoattractant pass through a porous membrane coated with gelatine. This in vitro assay is indicative of the ability of cells to cross an extracellular substrate and invade surrounding tissues. U87-MG and RPMI cells were resuspended in FBS-free medium, with or without treatments. IC20 obtained in SRB assay was used as compound treatment concentration, in order to not affect the invasion results with a too high mortality. 5×10^3 cells/well were seeded in the upper compartment of the Boyden chamber. In the lower compartment a complete medium supplemented with 10% FBS was placed. FBS was used as chemoattractant. Between the two compartments, a gelatine coated polycarbonate membrane with 8 μm pores was placed. The Boyden chamber, thus set up, was placed at 37° C. in an incubator for 24 hours (RPMI 8226 cells) or for 16 hours (U87-MG cells). After incubation membrane was removed and cells on the lower surface of the membrane were fixed and stained with Diffquick staining kit. Micrographs were taken and cells were counted using ImageJ software.
(§7) Statistical analysis of the data obtained was performed using the ANOVA and the Dunnet's post-hoc test. Values of p<0.01 (**) were considered statistically significant.
(§8) The results, expressed as the mean±standard deviation, represents the percentage of cells that are able to pass through the membrane compared to untreated control (arbitrarily set to 100%).

[5] = tested on: RPMI 8226 cells; assay: Boyden chamber cell invasion, RPMI 8226; type: cell-based, Human; conditions: RPMI 8226, treated at IC20 of SRB assay, 24 hours; for cell invasion compared to untreated control: control = 100%; for cell invasion (result in words): FIG. 10B
Procedure: as §6, §7, §8

[6] = tested on: Proteasome; assay: Proteasome activity (7-Amido-4-Methylcoumarin fluorescent probe) in RPMI 8226 cells; type: cell-based, Human; conditions: RPMI 8226, treated at IC50 of SRB assay, 24 hours
Procedure: (§9) Proteasome is a cellular complex responsible for the degradation of a high amount of regulatory, misfolded or damaged intracellular proteins. It is considered an important target for anticancer therapy. Proteasome activity was evaluated by 7-Amido-4-Methylcoumarin fluorescent probe. U87-MG and RPMI 8226 cells were cultured in 6 well-plates at 25×10^4 cells/well density and were treated with IC50 concentration of each compound (calculated in SRB assay). After 24 hours of treatment, cells were collected and total protein extracts were obtained. Lysis buffer (5 mM Hepes pH 7.5, 150 mM NaCl, 10% glycerol, 1% Triton X100, 1.5 mM MgCl2, 5 mM EGTA) was […] with proteases and phosphatases inhibitors. Protein content was quantified using Bradford method. 40 μg of proteins were mixed with proteasome buffer (250 mM Hepes pH 7.5, 5 mM EDTA, 0.5% NP-40, 0.01% SDS) and 2.2 mM 7-Amido-4-Methylcoumarin. After 2 hours of incubation at 37° C., fluorescence was quantified in a microplate reader (excitation 380 nm, emission 460 nm). Statistical analysis of the data obtained was performed using the ANOVA and the Dunnet's post-hoc test. Values of p<0.01 (**) were considered statistically significant. The results, expressed as the mean±standard deviation, represents the percentage of proteasome activity compared to untreated control (arbitrarily set to 100%).

[7] = tested on: dorsal root ganglia (DRG); assay: NGF-induced neurite outgrowth of DRG organotypic cultures (neurotoxic effect); type: cell-based, embryonic Sprague-Dawley rats; conditions: for neurotoxicity in vitro (result in words): concentrations = IC20, IC50, IC80 of U87-MG SRB assay, neurotoxic if neurites length less than 50% of control
Procedure: Evaluation of NGF-induced neurite outgrowths was performed on dorsal root ganglia (DRG) of 15-day-old embryonic Sprague-Dawley rats. Briefly, DRG were aseptically collected and plated onto collagen coated dishes. DRG were cultured in AN2 medium supplemented with 5 ng/mL NGF in a 5% CO2 humidified incubator at 37° C. DRG were treated after 2 hours with increasing concentrations of compounds, corresponding to IC20, IC50 and IC80 in U87-MG SRB assay. Micrographs of DRG were taken after 24 and 72 hours of treatment and neurite elongation was manually measured using ImageJ software.
as §7
The results, expressed as the mean±standard deviation, represents the percentage of neurite outgrowth compared to untreated control (arbitrarily set to 100%).
According to this method of in vitro neurotoxicity evaluation, a compound can be considered neurotoxic if neurites length is less than 50% of the control.

[8] = tested on: Proteasome; assay: Proteasome activity (7-Amido-4-Methylcoumarin fluorescent probe) in U87-MG cells; type: cell-based, Human; conditions: treated at IC50 of SRB assay, 24 hours; for proteasome inhibition: FIG. 11A
Procedure: as §9

Structure (SMILES)	IC50 [1] [µM]	IC20 [2] [µM]	IC50 [2] [µM]	IC80 [2] [µM]	cell migration (result in words) [3]	cell invasion (result in words) [4]	cell invasion compared to untreated control [5] [%]	proteasome inhibition (result in words) [6]	neurotoxicity in vitro (result in words) ([7]; rat DRG, 24 and 72 hours)	cell invasion (result in words) [5]	proteasome inhibition (result in words) [8]	proteasome inhibition [8] [%]	concentration up to which not neurotoxic ([7]; rat DRG neurite outgrowth, 24 and 72 hours)	neurite length, percentage of untreated control ([7]; rat DRG, all evaluated concentrations)
C/C(=C\CN1CCN(C(=O)Nc2ccc(C)cc2)CC1)c1ccc2ccccc2c1 [Compound 28, (E)-4-(3-(naphthalen-2-yl)but-2-en-1-yl)-N-(p-tolyl)piperazine-1-carboxamide]	10.8 ± 1.8	7.1 ± 0.6	3.7 ± 0.6	1.9 ± 0.5	strong cell migration inhibitors	very effective in reducing cell invasion; also recorded: significantly able of inhibiting the invasion	–	able of inhibiting the proteasome activity	not neurotoxic at all evaluated concentrations and time points	statistically significant, however lower than the one obtained in U87-MG cells	able of inhibiting the proteasome activity	–	–	–
C/C(=C\CN1CCN(C(=O)NC2CCCC2)CC1)c1ccc2ccccc2c1 [Compound 26, (E)-N-cyclopentyl-4-(3-(naphthalen-2-yl)but-2-en-1-yl)piperazine-1-carboxamide]	13.3 ± 0.6	22.6 ± 2	7.9 ± 0.7	3.9 ± 1.2	weak ability to reduce migration	weak effect against cell invasion	~80	able of inhibiting the proteasome activity	at the highest concentration evaluated it was found to be neurotoxic	–	able of inhibiting the proteasome activity	~50	up to 13 μM	–
COc1ccc2cc(/C(C)=C/CN3CCN(C(=O)Nc4c(F)cccc4F)CC3)ccc2c1 [Compound 30, (E)-N-(2,6-difluorophenyl)-4-(3-(6-methoxynaphthalen-2-yl)but-2-en-1-yl)piperazine-1-carboxamide]	12.2 ± 0.3	7.3 ± 0.1	4.5 ± 0.2	2.9 ± 0.1	strong cell migration inhibitors	not effective	~80	only a weak inhibitory effect	not neurotoxic in vitro; also recorded: not neurotoxic at all evaluated concentrations	–	–	–	–	higher than 50%

These reach a lower IC50 [1]. Values come first.

IC50 [1] [µM]	Structure (SMILES)	IC20 [2] [µM]	IC50 [2] [µM]	IC80 [2] [µM]	cell migration (result in words) [3]	cell invasion (result in words) [4]	cell invasion compared to untreated control [5] [%]	proteasome inhibition (result in words) [6]	neurotoxicity in vitro (result in words) ([7]; rat DRG, 24 and 72 hours)	cell invasion (result in words) [5]	proteasome inhibition (result in words) [8]	proteasome inhibition [8] [%]	concentration up to which not neurotoxic ([7]; rat DRG neurite outgrowth, 24 and 72 hours)	neurite length, percentage of untreated control ([7]; rat DRG, all evaluated concentrations)
10 ± 0.5	C/C(=C\CN1CCN(C(=O)NC2CCCCC2)CC1)c1ccc2ccccc2c1 [Compound 27, (E)-N-cyclohexyl-4-(3-(naphthalen-2-yl)but-2-en-1-yl)piperazine-1-carboxamide]	9.5 ± 3.7	6.4 ± 0.3	4.2 ± 2.1	strong cell migration inhibitors	weak effect against cell invasion	~80	not an inhibitory effect	not neurotoxic at all evaluated concentrations and time points	–	–	–	–	–
7.1 ± 0.1	COc1ccc2cc(/C(C)=C/CN3CCN(C(=O)Nc4ccc(C(F)(F)F)cc4)CC3)ccc2c1 [Compound 29, (E)-4-(3-(6-methoxynaphthalen-2-yl)but-2-en-1-yl)-N-(4-(trifluoromethyl)phenyl)piperazine-1-carboxamide]	8.1 ± 0.3	4.8 ± 0.1	2.9 ± 0.1	strong cell migration inhibitors	reduced cell invasion, but it was less effective than compound 28; also recorded: significantly able of inhibiting the invasion	–	only a weak inhibitory effect; also recorded: only weak inhibitory activity	not neurotoxic at all evaluated concentrations and time points	statistically significant, however lower than the one obtained in U87-MG cells	only a weak inhibitory effect; also recorded: only weak inhibitory activity	~50	–	–
